Measurements taken from paper PMC5345165, “Cardiotoxicity evaluation using human embryonic stem cells and induced pluripotent stem cell-derived cardiomyocytes” (Stem Cell Research & Therapy, 2017).

Experiments:
hiPSC-CMs = assay: xCELLigence RTCA Cardio impedance assay on hiPSC-CMs; assay type: cell-based, human; conditions: for CI (concentration at which cell index is decreased, ↓): arrow ↓ = CI decreased
Protocol: (§1) Human ESC-CMs were kindly provided by the Institute of Biophysics of the Chinese Academy of Sciences, Beijing, China. Human iPSC-CMs, provided by a domestic manufacturer (Cellapy: CA2001106, Beijing, China), were also examined. Cells were incubated in maintaining medium at 37 °C, 5% CO2, with culture medium refreshed every 2 days. Cells were dissociated and replated into 96-well E-plates (ACEA Biosciences, Hangzhou, China), which was pre-coated with 0.1% gelatin. Cells were plated at a density of 50,000 cells per well.
(§2) Spontaneous cardiomyocytes contraction and cell health were monitored in real-time by impedance using xCELLigence real-time cellular analyzer (RTCA) Cardio system (ACEA Biosciences, Hangzhou, China). Impedance signals were monitored and recorded with 20 s recording per sweep.
(§3) Drug dilutions were equilibrated in a 37 °C, 5% CO2 incubator for 30 min before being applied to E-plates.
(§4) For data analysis, cellular impedance index, beat rate, and amplitude were measured off-line using RTCA Cardio software 1.0 and normalized for each well to the baseline (pre-dose) values measured prior to the compounds treatment. Statistics were performed using SPSS 21.0 (IBM Corp., Armonk, NY, USA). Data were presented as mean ± SEM. Statistical significance of differences was estimated by one-way ANOVA or Student’s t test. p < 0.05 was considered significant.

hESC-CMs = assay: xCELLigence RTCA Cardio impedance assay on hESC-CMs; assay type: cell-based, human; conditions: for CI (concentration at which cell index is decreased, ↓): arrow ↓ = CI decreased, NO = no effect
Protocol: as §1, §2, §3, §4

[1] = hiPSC-CMs, concentration-dependent
[2] = hiPSC-CMs, concentration-dependent effect, impedance
[3] = concentration-dependent effect, impedance

Cc1cccc(CCN2CCC(C(=O)c3ccc(NS(C)(=O)=O)cc3)CC2)n1 [E-4031]
CI amplitude (hiPSC-CMs; hiPSC-CMs, 30 nmol/L, 18 h culture, tended to recover at 24 h): Reduction
time at which spontaneous beating ceased (hiPSC-CMs; hiPSC-CMs, 100 nmol/L): 12 h
spontaneous beating rate (hiPSC-CMs; hiPSC-CMs, 100 nmol/L, 6 h after administration): markedly reduced
time post administration at which spontaneous activity was abolished (hiPSC-CMs; hiPSC-CMs, 300 nmol/L): 2 h
spontaneous beating rate (hiPSC-CMs; hiPSC-CMs, 300 nmol/L, 1 h after administration): significantly reduced
time at which cells recovered automaticity (hESC-CMs; 10 nmol/L): 24 h
time post administration at which spontaneous beating ceased (hESC-CMs; 300 nmol/L): 0.5 h
time of temporary recovery of spontaneous beating activity (hESC-CMs; 300 nmol/L, one recording): 18 h
time post administration at which spontaneous activity ceased (hESC-CMs; 10, 30 and 100 nmol/L): 6 h
spontaneous beating rate (hESC-CMs; all concentrations (10, 30, 100, 300 nmol/L), upon immediate administration): Reduction

O=C(CCCN1CCC(O)(c2ccc(Cl)cc2)CC1)c1ccc(F)cc1 [Haloperidol, haloperidol]
spontaneous beating rate (hiPSC-CMs; hPSC-CMs, 0.1 μmol/L): Mild reduction
time post administration at which beating rate recovered (hiPSC-CMs; hPSC-CMs, 0.1 μmol/L): 18 h
beating rate (hiPSC-CMs; hPSC-CMs, 1 μmol/L, after 0.5 h): significantly reduced
time at which cellular automaticity ceased (hiPSC-CMs; hPSC-CMs, 10 μmol/L): 0.5 h
time at which self-recovery was observed (hiPSC-CMs; hPSC-CMs, 10 μmol/L): 24 h
amplitude compared with controls (hiPSC-CMs; hPSC-CMs, 10 μmol/L, after self-recovery at 24 h): significantly decreased
CI (concentration at which cell index is decreased, ↓) (hiPSC-CMs; hiPSC-CMs): 10↓ μmol•L^-1
effect on CI and pulse signals (hiPSC-CMs; [1]): reduced
IC50/EC50 (IC50) (hiPSC-CMs; [2]): 5.17 µM
beating rate (hESC-CMs; 0.01 μmol/L, 6 h post administration): mild reduction
spontaneous beating rate and amplitudes (hESC-CMs; 0.1 μmol/L): significantly reduced
time at which cellular automaticity ceased (hESC-CMs; 1 μmol/L): 0.5 h
time post administration at which partial recovery was observed (hESC-CMs; 1 μmol/L): 24 h
self-recovery after abolished spontaneous beating (hESC-CMs; 10 μmol/L, investigation period): no self-recovery
effect on CI and pulse signals (hESC-CMs; concentration-dependent): reduced
IC50/EC50 (IC50) (hESC-CMs; [3]): 0.14 µM

CC(C)NCC(O)c1ccc(O)c(O)c1 (stereo not drawn) [Isoprenaline, isoprenaline]
amplitude (hiPSC-CMs; hPSC-CMs, 0.1, 1 and 10 μmol/L): increased
time at which beating rate recovered (hiPSC-CMs; hiPSC-CMs, 0.1, 1 and 10 μmol/L): 24 h
beating rate (hiPSC-CMs; hiPSC-CMs, 0.1, 1 and 10 μmol/L, after 0.5 h of administration): significantly increased
CI (concentration at which cell index is decreased, ↓) (hiPSC-CMs; hiPSC-CMs): 1↓ μmol•L^-1
effect on CI (hiPSC-CMs; [1]): decrease
IC50/EC50 (EC50) (hiPSC-CMs; [2]): 0.03 µM
time after which beating rate recovered (hESC-CMs; 0.01 μmol/L): 12 h
spontaneous beating rate (hESC-CMs; 0.01 μmol/L, 0.5 h post injection): increased
time at which automaticity recovered (hESC-CMs; 0.1, 1 and 10 μmol/L): 24 h
cellular automaticity (hESC-CMs; 0.1, 1 and 10 μmol/L, 0.5 h post injection): significantly increased
CI (concentration at which cell index is decreased, ↓) (hESC-CMs): 0.1↓ μmol•L^-1
CI (concentration at which cell index is decreased, ↓) (hESC-CMs; listed as isoprenaline): ≥ 0.1 µmol/L
IC50/EC50 (EC50) (hESC-CMs; [3]): 0.04 µM

C=C[C@H]1C[N@@]2CC[C@H]1C[C@@H]2[C@@H](O)c1ccnc2ccc(OC)cc12 [Quinidine, quinidine]
concentration that weakened the amplitudes of pulse signals (hiPSC-CMs; hiPSC-CMs): ≥ 12.5 µmol/L
time after which beating rate spontaneously recovered (hiPSC-CMs; hiPSC-CMs, 3.13 μmol/L): 1 h
beating rate (hiPSC-CMs; hiPSC-CMs, 3.13 μmol/L, 0.5 h after administration): markedly reduced
time after which amplitude recovered (hiPSC-CMs; hiPSC-CMs, 12.5 μmol/L): 2 h
amplitude (hiPSC-CMs; hiPSC-CMs, 12.5 μmol/L, 0.5 h and 1 h post administration): substantially reduced
self-recovery of automaticity within the observation period (hiPSC-CMs; hiPSC-CMs, 50 and 100 μmol/L): without self-recovery
time after administration at which cellular automaticity ceased (hiPSC-CMs; hiPSC-CMs, 50 and 100 μmol/L): 0.5 h
CI (concentration at which cell index is decreased, ↓) (hiPSC-CMs; hiPSC-CMs): 100↓ μmol•L^-1
effect on CI (hiPSC-CMs; [1]): reduced
IC50/EC50 (IC50) (hiPSC-CMs; [2]): 13.97 µM
time at which spontaneous beating recovered (hESC-CMs; 12.5 μmol/L): 6 h
time at which spontaneous beating recovered (hESC-CMs; 50 μmol/L): 24 h
self-recovery after abolished cellular automaticity (hESC-CMs; 100 μmol/L): without observing self-recovery
effect on CI (hESC-CMs; 100 μmol/L, when perfusion was initiated): significant temporary decrease
time post administration at which spontaneous beating ceased (hESC-CMs; 12.5 and 50 μmol/L): 0.5 h
CI (concentration at which cell index is decreased, ↓) (hESC-CMs): 100↓ μmol•L^-1
concentration that weakened the pulse signals (hESC-CMs; concentration-dependent): ≥ 3.13 µmol/L
IC50/EC50 (IC50) (hESC-CMs; [3]): 2.18 µM
